Assay results published in PubChem BioAssay (NCI).
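Values below derive from 48-hour exposures of cells grown in 96-well plates, with endpoints linearly interpolated between the two concentrations bracketing the appropriate inhibition level. GI50 is the concentration that inhibits growth by half. TGI: total growth inhibition.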

Experiments:
Assay in all cases: NCI tumour cell line growth inhibition, 48 h
[1] = tested on: MALME-3M melanoma
[2] = tested on: IGROV1 ovarian
[3] = tested on: ACHN renal
[4] = tested on: SW-620 colon
[5] = tested on: T-47D breast
[6] = tested on: HCT-116 colon
[7] = tested on: OVCAR-3 ovarian
[8] = tested on: SF-539 CNS
[9] = tested on: SF-268 CNS
[10] = tested on: KM12 colon
[11] = tested on: NCI-H460 lung
[12] = tested on: A549 NSCLC
[13] = tested on: HCC-2998 colon
[14] = tested on: SN12C renal
[15] = tested on: SK-MEL-5 melanoma
[16] = tested on: PC-3 prostate
[17] = tested on: CAKI-1 renal
[18] = tested on: TK-10 renal
[19] = tested on: 786-0 renal
[20] = tested on: UACC-62 melanoma
[21] = tested on: MDA-MB-231 breast
[22] = tested on: U251 CNS
[23] = tested on: BT-549 breast
[24] = tested on: HT29 colon
[25] = tested on: HCT-15 colon
[26] = tested on: RXF 393 renal
[27] = tested on: OVCAR-8 ovarian
[28] = tested on: SK-MEL-28 melanoma
[29] = tested on: MDA-MB-468 breast
[30] = tested on: SK-OV-3 ovarian
[31] = tested on: EKVX NSCLC
[32] = tested on: SR leukemia
[33] = tested on: HL-60(TB) leukemia
[34] = tested on: DU-145 prostate
[35] = tested on: HS 578T breast
[36] = tested on: MCF7 breast
[37] = tested on: A498 renal
[38] = tested on: SNB-19 CNS
[39] = tested on: CCRF-CEM leukemia
[40] = tested on: MOLT-4 leukemia
[41] = tested on: COLO 205 colon
[42] = tested on: SF-295 CNS
[43] = tested on: NCI-H226 lung
[44] = tested on: OVCAR-4 ovarian
[45] = tested on: SK-MEL-2 melanoma
[46] = tested on: NCI-H522 lung
[47] = tested on: NCI-H23 lung
[48] = tested on: OVCAR-5 ovarian
[49] = tested on: SNB-75 CNS
[50] = tested on: LOX IMVI melanoma
[51] = tested on: HOP-62 NSCLC
[52] = tested on: M14 melanoma
[53] = tested on: UO-31 renal
[54] = tested on: HOP-92 NSCLC
[55] = tested on: RPMI-8226 leukemia
[56] = tested on: K-562 leukemia
[57] = tested on: UACC-257 melanoma
[58] = tested on: MDA-MB-435
[59] = tested on: NCI/ADR-RES ovarian

O=C(Nc1cccc(-c2cn(-c3ccc4oc(=O)ccc4c3)nn2)c1)Nc1cc(C(F)(F)F)cc(C(F)(F)F)c1
GI50 [1]: 28.2 µM
TGI [1]: > 100 µM
GI50 [2]: 8.87 µM
TGI [2]: > 100 µM
GI50 [3]: 6.86 µM
TGI [3]: 90.2 µM
GI50 [4]: 55.5 µM
TGI [4]: > 100 µM
GI50 [5]: 3.14 µM
TGI [5]: > 100 µM
GI50 [6]: 7.17 µM
TGI [6]: > 100 µM
GI50 [7]: 3.31 µM
TGI [7]: > 100 µM
GI50 [8]: 15.1 µM
TGI [8]: > 100 µM
GI50 [9]: 21.3 µM
TGI [9]: > 100 µM
GI50 [10]: 5.2 µM
TGI [10]: > 100 µM
GI50 [11]: 4.81 µM
TGI [11]: > 100 µM
GI50 [12]: 5.1 µM
TGI [12]: > 100 µM
GI50 [13]: 8.14 µM
TGI [13]: > 100 µM
GI50 [14]: 6.31 µM
TGI [14]: > 100 µM
GI50 [15]: 4.18 µM
TGI [15]: > 100 µM
GI50 [16]: 4.07 µM
TGI [16]: > 100 µM
GI50 [17]: 6.3 µM
TGI [17]: > 100 µM
GI50 [18]: 13.4 µM
TGI [18]: 56.9 µM
GI50 [19]: 12.6 µM
TGI [19]: 68.1 µM
GI50 [20]: 6.8 µM
TGI [20]: > 100 µM
GI50 [21]: 18.2 µM
TGI [21]: > 100 µM
GI50 [22]: 4.69 µM
TGI [22]: > 100 µM
GI50 [23]: 7.19 µM
TGI [23]: > 100 µM
GI50 [24]: > 100 µM
TGI [24]: > 100 µM
GI50 [25]: 5.15 µM
TGI [25]: > 100 µM
GI50 [26]: 2.44 µM
TGI [26]: 8.47 µM
GI50 [27]: 5.73 µM
TGI [27]: > 100 µM
GI50 [28]: > 100 µM
TGI [28]: > 100 µM
GI50 [29]: 2.43 µM
TGI [29]: 8.69 µM
GI50 [30]: 18.6 µM
TGI [30]: > 100 µM
GI50 [31]: 5.04 µM
TGI [31]: > 100 µM
GI50 [32]: 5.63 µM
TGI [32]: > 100 µM
GI50 [33]: 6.5 µM
TGI [33]: > 100 µM
GI50 [34]: 8.09 µM
TGI [34]: > 100 µM
GI50 [35]: 5.16 µM
TGI [35]: > 100 µM
GI50 [36]: 4.41 µM
TGI [36]: > 100 µM
GI50 [37]: 20.7 µM
TGI [37]: > 100 µM
GI50 [38]: 10.1 µM
TGI [38]: 89.8 µM
GI50 [39]: 3.31 µM
TGI [39]: > 100 µM
GI50 [40]: 3.82 µM
TGI [40]: > 100 µM
GI50 [41]: > 100 µM
TGI [41]: > 100 µM
GI50 [42]: 3.31 µM
TGI [42]: > 100 µM
GI50 [43]: 5.57 µM
TGI [43]: > 100 µM
GI50 [44]: 3.42 µM
TGI [44]: > 100 µM
GI50 [45]: 5.55 µM
TGI [45]: 25.7 µM
GI50 [46]: 4.39 µM
TGI [46]: > 100 µM
GI50 [47]: 3.34 µM
TGI [47]: > 100 µM
GI50 [48]: > 100 µM
TGI [48]: > 100 µM
GI50 [49]: 10.2 µM
TGI [49]: 45.1 µM
GI50 [50]: 7.55 µM
TGI [50]: > 100 µM
GI50 [51]: 8.08 µM
TGI [51]: 66.9 µM
GI50 [52]: > 100 µM
TGI [52]: > 100 µM
GI50 [53]: 6.34 µM
TGI [53]: > 100 µM
GI50 [54]: 3.66 µM
TGI [54]: 31.3 µM
GI50 [55]: 2.88 µM
TGI [55]: > 100 µM
GI50 [56]: 3.25 µM
TGI [56]: > 100 µM

COc1cc(OC)c(S(=O)(=O)N(CCCl)CCCl)cc1C(=O)/C=C/c1cc(OC)c(OC)c(OC)c1
GI50 [1]: 2.48 µM
TGI [1]: 7.18 µM
GI50 [2]: 3.09 µM
TGI [2]: 9.05 µM
GI50 [3]: 2.08 µM
TGI [3]: 6.16 µM
GI50 [4]: 2.69 µM
TGI [4]: 25.1 µM
GI50 [5]: 3.53 µM
TGI [5]: > 100 µM
GI50 [6]: 1.23 µM
TGI [6]: 2.82 µM
GI50 [7]: 2.12 µM
TGI [7]: 6.62 µM
GI50 [8]: 1.73 µM
TGI [8]: 3.61 µM
GI50 [9]: 2.62 µM
TGI [9]: 7.7 µM
GI50 [10]: 1.93 µM
TGI [10]: 4.26 µM
GI50 [11]: 1.95 µM
TGI [11]: 5.08 µM
GI50 [12]: 3.11 µM
TGI [12]: > 100 µM
GI50 [13]: 1.97 µM
TGI [13]: 3.54 µM
GI50 [57]: 1.66 µM
TGI [57]: 3.89 µM
GI50 [14]: 2.26 µM
TGI [14]: 13 µM
GI50 [15]: 1.84 µM
TGI [15]: 3.64 µM
GI50 [16]: 3.85 µM
TGI [16]: > 100 µM
GI50 [17]: 2.72 µM
TGI [17]: > 100 µM
GI50 [18]: 6.09 µM
TGI [18]: 75 µM
GI50 [19]: 1.95 µM
TGI [19]: 5.66 µM
GI50 [20]: 2.1 µM
TGI [20]: 4.94 µM
GI50 [21]: 3.95 µM
TGI [21]: > 100 µM
GI50 [22]: 1.78 µM
TGI [22]: 3.68 µM
GI50 [23]: 1.37 µM
TGI [23]: 2.92 µM
GI50 [24]: 2.34 µM
TGI [24]: 5.92 µM
GI50 [25]: 1.12 µM
TGI [25]: 3.98 µM
GI50 [26]: 1.24 µM
TGI [26]: 2.83 µM
GI50 [27]: 4.06 µM
TGI [27]: > 100 µM
GI50 [58]: 2.53 µM
TGI [58]: 7.51 µM
GI50 [28]: 1.82 µM
TGI [28]: 3.54 µM
GI50 [29]: 1.52 µM
TGI [29]: 3.66 µM
GI50 [30]: 3.47 µM
TGI [30]: 13 µM
GI50 [32]: 0.993 µM
TGI [32]: > 100 µM
GI50 [34]: 2.71 µM
TGI [34]: 14.8 µM
GI50 [35]: 8.55 µM
TGI [35]: > 100 µM
GI50 [36]: 1.01 µM
TGI [36]: 4.36 µM
GI50 [37]: 2.79 µM
TGI [37]: 7.23 µM
GI50 [59]: 2.58 µM
TGI [59]: > 100 µM
GI50 [38]: 2.37 µM
TGI [38]: 5.71 µM
GI50 [39]: 1.69 µM
TGI [39]: > 100 µM
GI50 [40]: 2.04 µM
TGI [40]: > 100 µM
GI50 [41]: 2.37 µM
TGI [41]: 4.46 µM
GI50 [42]: 2.86 µM
TGI [42]: 35.4 µM
GI50 [43]: 2.61 µM
TGI [43]: 8.95 µM
GI50 [44]: 2.78 µM
TGI [44]: > 100 µM
GI50 [45]: 2.06 µM
TGI [45]: 4.65 µM
GI50 [46]: 1.66 µM
TGI [46]: 3.78 µM
GI50 [48]: 2.51 µM
TGI [48]: 6.8 µM
GI50 [49]: 2.56 µM
TGI [49]: 8.53 µM
GI50 [50]: 1.44 µM
TGI [50]: 2.89 µM
GI50 [51]: 3.77 µM
TGI [51]: 22.8 µM
GI50 [52]: 2.09 µM
TGI [52]: 5.45 µM
GI50 [53]: 1.54 µM
TGI [53]: 2.92 µM
GI50 [54]: > 100 µM
TGI [54]: > 100 µM
GI50 [55]: 2.52 µM
TGI [55]: > 100 µM
GI50 [56]: 1.3 µM
TGI [56]: > 100 µM
